In ChEMBL document CHEMBL5252580, “Ionization and lipophilicity in nonpolar media mimicking the cell membrane interior” (Bioorg Med Chem, 2023):

Assays:
Assay type in all cases: physicochemical
[1] = Lipophilicity, log D of the compound assessed as retention index in nonpolar system in presence of 80% acetonitrile cosolvent by PLRP-S based RP-HPLC analysis
[2] = Lipophilicity, log D of the compound in toluene/water system at pH 7 by shake-flask assay based HPLC analysis; details: buffer
[3] = Ionization constant, pKa of the compound in water by potentiometric titration method
[4] = Lipophilicity, log D of the compound in octanol/water system at pH 7 by shake-flask assay based HPLC analysis
[5] = Ionization constant, pKa of the compound in water in presence of 30 to 35% acetonitrile cosolvent by potentiometric titration method; details: water with 30 to 35% acetonitrile cosolvent
[6] = Ionization constant, pKa of the compound in water in presence of 40 to 42.6% acetonitrile cosolvent by potentiometric titration method; details: water with 40 to 42.6% acetonitrile cosolvent
[7] = Lipophilicity, log D of the compound in octanol/water system at pH 7 by potentiometric titration method
[8] = Lipophilicity, log P of the compound in toluene/water system by potentiometric titration method; details: buffer
[9] = Lipophilicity, log P of the compound in octanol/water system by potentiometric titration method
[10] = Lipophilicity, log D of the compound in toluene/water system at pH 7 by potentiometric titration method; details: buffer
[11] = Basic ionization constant, pKa of the compound in 100% acetonitrile by UV-vis spectrophotometric titration method
[12] = Ionization constant, pKa of the compound in water in presence of 20 to 27.4% acetonitrile cosolvent by potentiometric titration method; details: water with 20 to 27.4% acetonitrile cosolvent
[13] = Ionization constant, pKa of the compound in water in presence of 80% acetonitrile cosolvent by PLRP-S based RP-HPLC analysis; details: water with 80% acetonitrile cosolvent
[14] = Acidic ionization constant, pKa of the compound in water by potentiometric titration method
[15] = Basic ionization constant, pKa of the compound in water by potentiometric titration method
[16] = 100% acetonitrile, read-out: pKa

Structure (SMILES) | Retention_index [1] | logD [2] | pKa [3] | logD [4] | pKa [5] | pKa [6] | logD [7] | logP [8] | logP [9] | logD [10] | pKa [11] | pKa [12] | pKa [13] | logP ([9]; read-out: logP) | pKa [14] | pKa [11, 16] | pKa [15]
Cc1cccc(C)c1NC(=O)C1CCCCN1C (centres undefined) [MEPIVACAINE] | 0.22 | 0.89 | 7.83 | 0.92 | 7.78 | 7.74 | 1.1 | 1.4 | 3.3 | 0.8 | 16.62 | 7.88 | 5.9 | – | – | – | –
NS(=O)(=O)c1cc2c(cc1Cl)NCNS2(=O)=O [HYDROCHLOROTHIAZIDE] | – | – | 8.68 | – | – | – | – | – | – | – | – | – | – | – | – | – | –
CCCCC(=O)N(Cc1ccc(-c2ccccc2-c2nnn[nH]2)cc1)[C@H](C(=O)O)C(C)C | – | < -2.5 | – | -1.32 | – | – | < 0 | 0.3 | – | < 0 | – | – | – | 3.2 | – | – | –
CC(C)Cc1ccc(C(C)C(=O)O)cc1 (centres undefined) [IBUPROFEN] | – | -0.43 | – | 1.07 | – | – | 1.3 | 3.1 | – | 0.2 | – | – | – | – | – | – | –
CCn1cc(C(=O)O)c(=O)c2ccc(C)nc21 [NALIDIXIC ACID] | -0.15 | -0.12 | – | 0.35 | 7.1 | 7.56 | – | – | – | – | – | 6.63 | – | – | 6.25 | 6.17 | –
Nc1cccc(O)c1 [3-AMINOPHENOL] | -0.65 | -1.77 | – | -0.11 | 4.07 | 4.01 | 0.1 | – | – | – | – | 4.13 | – | 0.1 | 9.82 | 10.4 | 4.36
